# Measurements published in patent US12637513B2, “Method of treating cancer by administering an inhibitor of erythropoietin receptor activity comprising either erythropoietin receptor or erythropoietin protein” (ImmunEdge, Inc., priority 2022, dated 2026).
# Positions count from the first letter of the chain named. Where two headings read alike, the source gives them in different places.
# T1: EPO/EPOR interaction (EPOR-CD131-Fc and EPO) (Homo sapiens, UniProt P19235+P32927)
# T1 construct: Chimeric Fc fusion proteins of the extracellular domains of human EPOR and human CD131; purchased Sino Biological CT010-H02H
# T1 sequence (P19235 25-250 limits assumed): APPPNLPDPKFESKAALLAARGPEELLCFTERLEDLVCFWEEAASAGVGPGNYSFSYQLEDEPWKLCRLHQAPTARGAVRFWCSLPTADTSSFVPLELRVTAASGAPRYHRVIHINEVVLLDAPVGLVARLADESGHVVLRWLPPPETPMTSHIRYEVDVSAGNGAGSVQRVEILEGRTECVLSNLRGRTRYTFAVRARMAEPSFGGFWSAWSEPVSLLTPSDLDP
# T1 sequence (P32927 17-443 limits assumed): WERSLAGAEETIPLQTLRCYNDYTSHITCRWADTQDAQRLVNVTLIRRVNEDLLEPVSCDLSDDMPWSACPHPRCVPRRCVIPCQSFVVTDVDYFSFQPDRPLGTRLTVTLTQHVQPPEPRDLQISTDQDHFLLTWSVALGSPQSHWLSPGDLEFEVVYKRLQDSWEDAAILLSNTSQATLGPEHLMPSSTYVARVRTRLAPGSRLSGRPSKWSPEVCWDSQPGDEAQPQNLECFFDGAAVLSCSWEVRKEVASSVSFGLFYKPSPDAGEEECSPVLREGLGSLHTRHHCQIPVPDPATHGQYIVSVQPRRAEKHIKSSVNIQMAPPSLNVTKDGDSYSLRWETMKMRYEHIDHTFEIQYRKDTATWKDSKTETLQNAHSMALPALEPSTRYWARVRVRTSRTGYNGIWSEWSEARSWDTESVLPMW
# T2: soluble hetero-EPOR (EPOR-CD131-Fc) (Homo sapiens, UniProt P19235+P32927)
# T2 construct: Chimeric Fc fusion proteins of the extracellular domains of human EPOR and human CD131; purchased Sino Biological CT010-H02H
# T2 sequence (P19235 25-250 limits assumed): T1 sequence (P19235 25-250 limits assumed)
# T2 sequence (P32927 17-443 limits assumed): T1 sequence (P32927 17-443 limits assumed)
# T3: EPOR-Fc (Homo sapiens, UniProt P19235)
# T3 construct: The extracellular domains of EPOR or CD131 are produced as soluble Fc fusion proteins; purchased Sino Biological 10707-H02H
# T3 sequence (P19235 25-250 limits assumed): T1 sequence (P19235 25-250 limits assumed)
# B1: EPORab - M52: hybridoma antibody clone, VH/VK in Table 10 (antibody, V domains shown)
# VH: QLQLQESGPGLAKPSETLSLTCTVSGVSISSNSYYWGWIRQPPGKGLEWIGNIYHSGRTYYNPSLRSRVTISVDTSKNQFSLKLNSVTAADTAVYYCARGYSYGAFDYWGQGTLVTVSS
# VL: DIQMTQSPSSLSASVGDRVTITCRASQGIRNDLGWYQQKPGKAPKRLIYAASSLQSGIPSRFSGSGSGTEFTLTISSLQPEDFATYYCLQHNNYPWTFGQGTKVEIK
# B2: EPORab - M54: hybridoma antibody clone, VH/VK in Table 10 (antibody, V domains shown)
# VH: QLQLQESGPGLVKPSETLSLTCSVSGGSISSSGYYWGWIRQPPGKGLDWIGTIYYSGNTNYNPSLNSRVTISVDTSRNQFSLKLRSVTAADTAVYYCARGYSYGPFDYWGQGTLVTVSS
# VL: EIVMTQSPATLSVSPGERATLSCRASQSVSSNLAWYQLKPGQAPRLLIYGASTRATGIPARFSGSGSGTEFTLTISSLQSEDFAVYYCHPYNNWPLTFGGGTKVEIK
# B3: EPORab - M37: hybridoma antibody clone, VH/VK in Table 10 (antibody, V domains shown)
# VH: QVQLQESGPGLVKPSGTLSLTCAVSGGSITTNNWWSWVRQSPGKGLEWIGEIYHSGNTNYNPSLKSRVTMSVDKSKNQFSLNLNSVIVADTAVYYCASALGTYYGAFDTWGQGTMVTVSA
# VL: DIQMTQSPSSLSASVGDRVTITCRASQSISNYLNWYQQKPGKAPKLLIYAASSLQSGVPSRFSGSGSGTDFTLTISSLQPEDFTTYYCQQSYGTPYTFGQGAKLQIK
# B4: EPORab - M43: hybridoma antibody clone, VH/VK in Table 10 (antibody, V domains shown)
# VH: QVQLQESGPGLVKPSGTLSLTCAVSGGSISSSNWWSWVRQPPGKGLEWIGEIYHSGSINYNPSLKSRVTISVDKSKNQFSLKLTSVTAADTAVYYCASALGNYYGAFDLWGQGTMVTVSS
# VL: B3 VL with Q3V, S28T, N31S, Y49C, S56G, T84A, T85P, G93S, A102T, Q105E
# B5: EPORab - M71: hybridoma antibody clone, VH/VK in Table 10 (antibody, V domains shown)
# VH: QVQLVESGAEVKKPRASVKVSCKTSGYTFTRHYMHWVRQAPGQGLEWMGIINPNNNSTSYAQKFQGRITMTRDTSTSTVYMELSSLRSEDTAVYYCARFRIVGTTLYFDYWGQGTLVTVSS
# VL: B2 VL
# B6: EPORab - M1: hybridoma antibody clone, VH/VK in Table 10 (antibody, V domains shown)
# VH: QVQLQESGPGLVKPSQTLSLTCTVSGGSISSGGYYWSWIRQHPGKGLEWIGNIYYSGNPYYNPSLKSRLIISVDTSKNQFSLRLNSVTAADTAVYYCATFYYGSGSYYNEDYWGQGTLVTVSS
# VL: B1 VL with N31I, Q55K, I58V, A84T, Y87F, N93S, W96Y, V104L
# B7: EPORab - M19: hybridoma antibody clone, VH/VK in Table 10 (antibody, V domains shown)
# VH: QLQLQESGPGLVKPSETLSLTCTVSGGSISSSNHYWGWIRQPPGKGLEWIGTLYYSGSTYYEPSLKSRVTISVDTSMNQFSLNLSSVTATDTAVYNCARGDRYGPFDYWGQGTLVTVSS
# VL: B1 VL with Q3V, N31D, G41E, Y49C, I58V, H91Y, N93R
# B8: EPORab - M24: hybridoma antibody clone, VH/VK in Table 10 (antibody, V domains shown)
# VH: EVQLVESGGGLVKPGGSLRLSCAASGFTFTNAWMNWVRQAPGKGLEWIGRIKSKTAGETTDYAAPVKGRFTISRDDSKNTLYLQMNSLKTEDTAVYYCTTDPDYGDPYYYYYFMDVWGKGTTVTVSS
# VL: DIQMTQSPSSLSASIGDRVTISCRASQSISSYLNWYQQKPGKAPKLLIYGASSLQSGVPSRFSGSGSGTDFTLTISSLQPEDFATYYCQQSYSLPLTFGGGTKVEIK
# How the values were obtained:
# HIF-1a = HIF-1a (Homo sapiens, UniProt Q16665); details: cited from earlier work
# HIF-1a, sequence (Q16665 whole entry): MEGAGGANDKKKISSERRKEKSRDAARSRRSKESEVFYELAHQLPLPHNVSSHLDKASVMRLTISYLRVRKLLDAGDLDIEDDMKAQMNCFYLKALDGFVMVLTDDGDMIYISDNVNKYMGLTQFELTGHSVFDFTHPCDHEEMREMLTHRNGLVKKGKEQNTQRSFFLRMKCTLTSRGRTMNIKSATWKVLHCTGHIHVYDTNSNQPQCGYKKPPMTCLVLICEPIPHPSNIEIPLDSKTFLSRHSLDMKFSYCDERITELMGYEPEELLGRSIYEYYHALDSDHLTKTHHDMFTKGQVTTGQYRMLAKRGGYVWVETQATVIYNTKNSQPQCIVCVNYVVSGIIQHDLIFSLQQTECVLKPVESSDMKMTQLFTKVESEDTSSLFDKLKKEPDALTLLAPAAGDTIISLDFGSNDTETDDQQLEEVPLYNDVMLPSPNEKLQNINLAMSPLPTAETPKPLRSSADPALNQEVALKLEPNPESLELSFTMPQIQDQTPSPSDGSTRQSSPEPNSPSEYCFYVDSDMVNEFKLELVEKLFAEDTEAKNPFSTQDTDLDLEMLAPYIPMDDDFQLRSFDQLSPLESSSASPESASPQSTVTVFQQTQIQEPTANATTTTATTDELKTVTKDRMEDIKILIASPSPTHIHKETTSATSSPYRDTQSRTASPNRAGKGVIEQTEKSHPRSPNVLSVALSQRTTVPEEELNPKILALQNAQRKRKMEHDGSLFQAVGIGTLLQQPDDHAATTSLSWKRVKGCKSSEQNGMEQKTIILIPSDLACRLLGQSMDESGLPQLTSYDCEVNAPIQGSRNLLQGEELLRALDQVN
# HIF-2a = HIF-2a (Homo sapiens, UniProt Q99814); details: target HIF-2a; cited from earlier work
# HIF-2a, sequence (Q99814 whole entry): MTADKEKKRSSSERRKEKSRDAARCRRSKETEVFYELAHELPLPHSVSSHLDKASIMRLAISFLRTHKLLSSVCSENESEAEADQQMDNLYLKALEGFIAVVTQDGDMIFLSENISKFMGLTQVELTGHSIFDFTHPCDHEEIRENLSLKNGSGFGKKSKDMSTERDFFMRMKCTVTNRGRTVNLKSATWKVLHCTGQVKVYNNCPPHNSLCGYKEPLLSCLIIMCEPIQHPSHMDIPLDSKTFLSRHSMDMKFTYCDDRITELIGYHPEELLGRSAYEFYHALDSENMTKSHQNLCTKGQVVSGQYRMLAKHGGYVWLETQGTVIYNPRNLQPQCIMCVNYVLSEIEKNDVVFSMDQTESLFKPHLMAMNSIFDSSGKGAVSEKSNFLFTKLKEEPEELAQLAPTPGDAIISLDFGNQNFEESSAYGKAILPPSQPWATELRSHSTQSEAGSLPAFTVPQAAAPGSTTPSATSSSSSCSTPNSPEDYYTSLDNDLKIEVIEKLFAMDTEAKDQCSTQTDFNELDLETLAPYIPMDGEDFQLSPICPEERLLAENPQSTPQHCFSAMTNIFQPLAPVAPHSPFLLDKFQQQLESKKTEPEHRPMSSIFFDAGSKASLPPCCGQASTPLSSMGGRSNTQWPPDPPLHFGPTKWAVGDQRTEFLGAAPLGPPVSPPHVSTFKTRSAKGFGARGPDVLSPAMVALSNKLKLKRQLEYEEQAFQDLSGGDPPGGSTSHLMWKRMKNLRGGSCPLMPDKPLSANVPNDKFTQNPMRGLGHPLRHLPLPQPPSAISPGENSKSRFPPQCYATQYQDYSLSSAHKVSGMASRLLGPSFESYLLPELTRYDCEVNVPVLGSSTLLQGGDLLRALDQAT
# PHD = details: cited from earlier work
# [1] = molecular target: T1, EPO/EPOR interaction (EPOR-CD131-Fc and EPO); experiment: Octet blocking of the EPO/EPOR interaction by hybridoma supernatants; format: binding; details: EPO 10 nM
# [2] = molecular target: T2, soluble hetero-EPOR (EPOR-CD131-Fc); experiment: Bio-layer interferometry (Octet) binding of hybridoma antibodies to EPOR-CD131-Fc; details: hybridoma supernatants; 30 nM soluble receptor
# Description: (§1) The B cells from ATX-GK mice were fused with mouse myeloma cells to generate hybridoma. The hybridoma cells were screened twice. In the first screening, 293 cells expressing human EPOR, human CD131, or both were used as the primary screen. 87 hybridoma antibodies have been isolated by positive staining on 293T cells expressing human EPOR (hEPOR), human CD131 (hCD131), or both, with the hybridoma supernatants (Table 11 and FIG. 17). Expression of EPOR and CD131 was confirmed by flow cytometry with Phycoerythrin (PE)-labeled anti-EPOR (R&D Systems, Cat #FAB307P) and Alexa Fluor® 647 (AF647)-labeled anti-CD131 (BD Biosciences, Cat #564191), respectively (FIG. 28B). All hybridoma clones were purified and sequenced. Binding kinetics with soluble hetero-EPOR (EPOR-CD131-Fc), soluble EPO receptor subunit of hetero-EPOR (EPOR-Fc), and soluble CD131 subunit of hetero-EPOR (CD131-Fc) were measured using bio-layer interferometry (Octet®) by capturing the hybridoma antibodies in the supernatants on biosensors coated with anti-mouse Fc first and dipping the biosensors into the solutions containing 30 nM of the soluble receptor Fc fusion proteins. The supernatants were also used to block the interaction between EPO and EPOR. The soluble EPOR-CD131-Fc was first captured on biosensors coated with anti-human Fc and then dipped into 10 nM of EPO with or without the hybridoma supernatants. […]
# EPOR-Fc = molecular target: T3, EPOR-Fc; experiment: Bio-layer interferometry (Octet) binding of hybridoma antibodies to EPOR-Fc; details: hybridoma supernatants; 30 nM soluble receptor
# Description: as §1
molecule,measurement,setting,value
COC(=O)c1ccc(O)c(NC(=O)COc2ccc(C34CC5CC(CC(C5)C3)C4)cc2)c1 [CAY10585 (LW6)],IC50,HIF-1a; read-out: IC50,700 to 2600 nM
CN1C(=O)[C@]2(Cc3cn([C@]45C[C@@]67SS[C@@](CO)(C(=O)N6[C@H]4Nc4ccccc45)N(C)C7=O)c4ccccc34)SS[C@@]1(CO)C(=O)N2C [Chetomin],IC50,"HIF-1a; target HIF-1a, read-out: IC50",10 nM
CS[C@H]1SC[C@H]2C(=O)N(C)[C@@H](C(C)C)C(=O)OC[C@@H](NC(=O)c3cnc4ccccc4n3)C(=O)N[C@@H](C)C(=O)N(C)[C@@H]1C(=O)N(C)[C@@H](C(C)C)C(=O)OC[C@@H](NC(=O)c1cnc3ccccc3n1)C(=O)N[C@@H](C)C(=O)N2C [Echinomycin],IC50,"HIF-1a; target HIF-1a, read-out: IC50",1.2 nM
Cc1ccc(C(=O)COC(=O)c2cccc(NC(=O)c3ccc([N+](=O)[O-])cc3[N+](=O)[O-])c2)cc1 [FM19G11],IC50,HIF-1a; target HIF-1a,80 nM
O=[N+]([O-])c1cc(Nc2ccc3nonc3c2[N+](=O)[O-])ccc1Cl [HIF-2α-IN-3],IC50,HIF-2a,400 nM
COC(=O)c1sccc1N/N=C(\C#N)S(C)(=O)=O [HIF-2α-IN-4],IC50,HIF-2a,5000 nM
O=S(=O)(NCCSSCCNS(=O)(=O)c1cc(Cl)ccc1Cl)c1cc(Cl)ccc1Cl [KC7F2],IC50,"HIF-1a; target HIF-1a, read-out: IC50",20000 nM
c1ccc(-c2ccc(CNc3nc(-c4ccccn4)nnc3-c3ccccc3)cc2)cc1 [ML228],IC50,PHD; target cell empty,1000 nM
O=c1c(-n2ccnn2)c[nH]n1-c1cc(N2CCOCC2)ncn1 [Molidustat],IC50,PHD; target PHD,450 nM
O=C(O)CNC(=O)c1ncc(-c2cn(CCCc3ccc(Cl)cc3)nn2)cc1O [Prolyl Hydroxylase inhibitor 1],IC50,PHD; target PHD,62.2 nM
O=[N+]([O-])c1c(Nc2cc(F)cc(Cl)c2)ccc2nonc12 [TC-S 700],IC50,HIF-2a,81 nM
CC[C@@H](C)C[C@H](C)C[C@H](C)/C=C(\C)[C@H]1OC(O)([C@](C)(O)C(=O)N[C@@H]2C(=O)N3NCCC[C@@H]3C(=O)N(O)CC(=O)N(C)CC(=O)NCC(=O)N(C)CC(=O)O[C@H]2C(C)C)CC[C@@H]1OC (stereo partly shown) [Verucopeptin],IC50,"HIF-1a; target HIF-1a, read-out: IC50",220 nM
B1,blocking of the EPO/EPOR interaction,[1],partial blocking
B2,blocking of the EPO/EPOR interaction,[1],partial blocking
B3,blocking of the EPO/EPOR interaction,[1],did not block
B4,blocking of the EPO/EPOR interaction,[1],did not block
B5,blocking of the EPO/EPOR interaction,[1],did not block
B6,binding to EPOR-CD131-Fc,[2],potent binding
same,binding to EPOR-Fc,EPOR-Fc,potent binding
same,blocking of the EPO/EPOR interaction,[1],partial blocking
B7,blocking of the EPO/EPOR interaction,[1],partial blocking
B8,blocking of the EPO/EPOR interaction,[1],partial blocking
